# Experimental data taken from patent US9676782B2, “Substituted pyrazolo[1,5-a]pyrazines as negative allosteric modulators of metabotropic glutamate receptor 3” (Vanderbilt University, priority 2014, dated 2017).
# Where two headings read alike, the source gives them in different places.
# How the values were obtained:
# [1] = biological target: rat mGlu3 (Rattus norvegicus (Rat), UniProt P31422); test: mGlu3 Ca2+ flux assay; type: cell-based; conditions: for remaining activity at 30 µM: amplitude of response at 30 μM test compound as % of maximal response to glutamate, read-out: rat mGlu3 Glu max (%)
# Sequence of rat mGlu3 (P31422 23-879): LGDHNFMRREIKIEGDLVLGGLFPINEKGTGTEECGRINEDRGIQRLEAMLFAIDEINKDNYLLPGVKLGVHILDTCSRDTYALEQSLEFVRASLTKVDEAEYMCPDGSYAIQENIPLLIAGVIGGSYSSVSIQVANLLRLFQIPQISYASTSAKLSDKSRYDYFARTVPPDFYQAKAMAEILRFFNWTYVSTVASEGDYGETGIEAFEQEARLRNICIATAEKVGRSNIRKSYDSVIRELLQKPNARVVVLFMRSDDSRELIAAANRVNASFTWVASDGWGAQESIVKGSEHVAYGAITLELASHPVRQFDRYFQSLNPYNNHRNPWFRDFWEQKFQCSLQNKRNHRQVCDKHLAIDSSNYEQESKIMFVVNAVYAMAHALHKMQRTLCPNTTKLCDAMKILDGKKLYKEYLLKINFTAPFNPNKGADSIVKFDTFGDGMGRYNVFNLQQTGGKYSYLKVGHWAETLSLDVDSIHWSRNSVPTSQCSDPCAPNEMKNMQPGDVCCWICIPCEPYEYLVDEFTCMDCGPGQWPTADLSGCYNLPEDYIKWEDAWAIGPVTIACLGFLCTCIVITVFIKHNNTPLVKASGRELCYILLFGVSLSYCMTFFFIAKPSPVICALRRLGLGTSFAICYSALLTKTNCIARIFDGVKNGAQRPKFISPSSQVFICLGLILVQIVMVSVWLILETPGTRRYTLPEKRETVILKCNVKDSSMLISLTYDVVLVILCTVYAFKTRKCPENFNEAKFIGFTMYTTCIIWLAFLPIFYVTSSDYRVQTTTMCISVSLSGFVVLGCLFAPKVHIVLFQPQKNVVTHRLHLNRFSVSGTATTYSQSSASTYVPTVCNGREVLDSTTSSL
# In short: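 Cells expressing rat mGlu3 were grown overnight at 37° C. under 5% CO2, then loaded with dye. After dye removal they received 20 μL of assay buffer and sat 10 minutes at room temperature. Calcium flux was read on a Hamamatsu FDSS7000, and fluorescence was expressed as fold over basal and normalized to the maximal glutamate response.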
# [2] = biological target: rat mGlu5 (Rattus norvegicus (Rat), UniProt P31424); test: mGlu5 Ca2+ flux assay; type: cell-based; conditions: for Emax at 30 µM: read-out: rat mGlu5 Glu max (%); for Fold selectivity (mGlu3 vs. mGlu5): ratio of rat mGlu5 EC50 or IC50 to rat mGlu3 IC50; for IC50: glutamate EC80
# Sequence of rat mGlu5 (P31424 21-1203): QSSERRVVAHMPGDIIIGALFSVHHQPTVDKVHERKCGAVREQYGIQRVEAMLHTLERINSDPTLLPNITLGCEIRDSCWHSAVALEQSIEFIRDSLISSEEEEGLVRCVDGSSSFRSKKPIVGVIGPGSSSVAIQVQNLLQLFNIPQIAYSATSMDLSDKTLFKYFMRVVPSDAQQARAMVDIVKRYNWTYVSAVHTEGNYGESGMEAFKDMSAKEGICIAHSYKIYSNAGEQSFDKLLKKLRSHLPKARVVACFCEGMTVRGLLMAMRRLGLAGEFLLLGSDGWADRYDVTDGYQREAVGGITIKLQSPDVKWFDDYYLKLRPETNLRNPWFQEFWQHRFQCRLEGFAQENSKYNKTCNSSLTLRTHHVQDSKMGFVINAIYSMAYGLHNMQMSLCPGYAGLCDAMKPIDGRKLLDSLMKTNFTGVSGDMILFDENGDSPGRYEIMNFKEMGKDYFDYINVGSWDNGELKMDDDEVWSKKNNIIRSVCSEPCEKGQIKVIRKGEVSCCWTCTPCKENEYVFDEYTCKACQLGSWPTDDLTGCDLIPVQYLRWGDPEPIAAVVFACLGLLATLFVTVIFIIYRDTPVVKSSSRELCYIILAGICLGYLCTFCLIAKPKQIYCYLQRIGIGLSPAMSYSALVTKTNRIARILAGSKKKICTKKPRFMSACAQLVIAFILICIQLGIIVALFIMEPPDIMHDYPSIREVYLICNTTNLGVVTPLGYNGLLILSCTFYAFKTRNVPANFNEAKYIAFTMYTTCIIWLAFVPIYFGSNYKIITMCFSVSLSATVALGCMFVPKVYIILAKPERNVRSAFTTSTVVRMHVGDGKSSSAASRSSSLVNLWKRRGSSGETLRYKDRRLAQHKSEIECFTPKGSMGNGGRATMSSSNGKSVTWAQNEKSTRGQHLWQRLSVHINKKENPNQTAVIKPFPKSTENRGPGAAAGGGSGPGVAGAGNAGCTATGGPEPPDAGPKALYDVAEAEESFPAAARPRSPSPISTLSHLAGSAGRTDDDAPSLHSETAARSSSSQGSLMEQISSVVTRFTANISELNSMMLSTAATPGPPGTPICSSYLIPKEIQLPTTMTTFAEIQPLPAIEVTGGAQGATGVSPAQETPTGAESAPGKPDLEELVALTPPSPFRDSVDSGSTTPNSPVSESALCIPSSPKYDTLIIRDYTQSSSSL
# In short: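 Transfected cells grown overnight at 37° C/5% CO2, dye-loaded, then 5 min in assay buffer at RT before Ca2+ flux read on FDSS7000. Fluorescence as F/F0 fold over basal, normalized to maximal glutamate response; EC50 from unconstrained 4-parameter logistic fit, triplicates weighted evenly.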
# [3] = PAM, amplitude of response at 30 μM test compound as % of maximal response to glutamate
# [4] = read-out: rat mGlu5 EC50 or IC50
# [5] = NAM potency, decrease of glutamate EC80 response, >30,000 = no measurable activity, >10,000 = no plateau, read-out: rat mGlu3 IC50
# [6] = compound noted as NAM or partial antagonist (PAnt) at mGlu5, read-out: rat mGlu5 EC50 or IC50
# [7] = compound noted as NAM or partial antagonist (PAnt) at mGlu5, response at 30 μM as % of maximal glutamate response
Structure (SMILES),remaining activity at 30 µM [1] [%],IC50 ([1]; read-out: rat mGlu3 IC50) [µM],"Emax at 30 µM [2, 3] [%]",Fold selectivity (mGlu3 vs. mGlu5) [2],"EC50 [2, 4] [µM]","IC50 [1, 5] [µM]","IC50 [2, 6] [µM]","Emax at 30 µM [2, 7] [%]","IC50 ([1]; Table 2 compounds with X = NMe, read-out: mGlu3 IC50) [µM]","mGlu3 Glu max ([1]; Table 2 compounds with X = NMe, response at 30 μM compound as percentage of maximal glutamate response) [%]","EC50 ([2]; Table 2 compounds with X = NMe, read-out: mGlu5 EC50) [µM]"
"C[C@H]1CN(c2ccc(F)cc2)C(=O)c2cc(CNc3cccc(F)c3)nn21 [Compound 47, (S)-5-(4-fluorophenyl)-2-(((3-fluorophenyl)amino)methyl)-7-methyl-6,7-dihydropyrazolo[1,5-a]pyrazin-4(5H)-one]",1.77,1.84,78.3,0.58,1.07,–,–,–,–,–,–
"O=C1c2cc(CNc3ccc(Cl)cn3)nn2CCN1c1ccc(F)cc1 [Compound 158, 2-(((5-chloropyridin-2-yl)amino)methyl)-5-(4-fluorophenyl)-6,7-dihydropyrazolo[1,5-a]pyrazin-4(5H)-one]",1.27,–,–,4.02,–,0.602,2.42,73.6,–,–,–
"O=C1c2cc(CNc3cccc(Cl)n3)nn2CCN1c1ccc(F)cc1 [Compound 163, 2-(((6-chloropyridin-2-yl)amino)methyl)-5-(4-fluorophenyl)-6,7-dihydropyrazolo[1,5-a]pyrazin-4(5H)-one]",1.15,–,–,>25,> 30,1.18,–,–,–,–,–
"O=C1c2cc(CNc3ccc(OC(F)F)cc3F)nn2CCN1c1ccc(F)cc1F [Compound 141, 2-(((4-(difluoromethoxy)-2-fluorophenyl)amino)methyl)-5-(2,4-difluorophenyl)-6,7-dihydropyrazolo[1,5-a]pyrazin-4(5H)-one]",1.87,–,–,>42,> 30,0.706,–,–,–,–,–
"COc1cccc(NCc2cc3n(n2)[C@H](C)CN(c2ccc(F)cc2)C3=O)c1 [Compound 52, (R)-5-(4-fluorophenyl)-2-(((3-methoxyphenyl)amino)methyl)-7-methyl-6,7-dihydropyrazolo[1,5-a]pyrazin-4(5H)-one]",4.06,–,–,>11,> 30,2.72,–,–,–,–,–
"Cc1ccccc1NCc1cc2n(n1)[C@@H](C)CN(c1ccc(F)cc1)C2=O [Compound 45, (S)-5-(4-fluorophenyl)-7-methyl-2-((o-tolylamino)methyl)-6,7-dihydropyrazolo[1,5-a]pyrazin-4(5H)-one]",1.32,–,37.1,>2.9,> 10,3.34,–,–,–,–,–
"C[C@H]1CN(c2ccc(F)cc2)C(=O)c2cc(CNc3cc(F)cc(F)c3)nn21 [Compound 74, (S)-2-(((3,5-difluorophenyl)amino)methyl)-5-(4-fluorophenyl)-7-methyl-6,7-dihydropyrazolo[1,5-a]pyrazin-4(5H)-one]",-2.19,–,59.3,>4.2,> 10,2.35,–,–,–,–,–
"Cc1cc(NCc2cc3n(n2)CCN(c2ccc(F)cc2)C3=O)ccc1F [Compound 36, 2-(((4-fluoro-3-methylphenyl)amino)methyl)-5-(4-fluorophenyl)-6,7-dihydropyrazolo[1,5-a]pyrazin-4(5H)-one]",1.91,–,–,>17,> 30,1.67,–,–,–,–,–
"COc1ccc(N(C)Cc2cc3n(n2)CCN(c2ccccc2C)C3=O)cc1 [Compound 111, 2-(((4-methoxyphenyl)(methyl)amino)methyl)-5-(o-tolyl)-6,7-dihydropyrazolo[1,5-a]pyrazin-4(5H)-one]",0.74,–,–,>15,> 30,2,–,–,–,–,–
"C[C@@H]1CN(c2ccc(F)cc2)C(=O)c2cc(CNc3ccc(F)c(F)c3)nn21 [Compound 77, (R)-2-(((3,4-difluorophenyl)amino)methyl)-5-(4-fluorophenyl)-7-methyl-6,7-dihydropyrazolo[1,5-a]pyrazin-4(5H)-one]",3.77,–,–,>19,> 30,1.57,–,–,–,–,–
"COc1ccc(N(C)Cc2cc3n(n2)CCN(c2cccc(F)c2Cl)C3=O)cc1 [Compound 126, 5-(2-chloro-3-fluorophenyl)-2-(((4-methoxyphenyl)(methyl)amino)methyl)-6,7-dihydropyrazolo[1,5-a]pyrazin-4(5H)-one]",1.5,–,–,>6.2,–,1.6,> 10,56.8,–,–,–
"Cc1ccc(NCc2cc3n(n2)[C@H](C)CN(c2ccc(F)cc2)C3=O)cc1 [Compound 58, (R)-5-(4-fluorophenyl)-7-methyl-2-((p-tolylamino)methyl)-6,7-dihydropyrazolo[1,5-a]pyrazin-4(5H)-one]",1.27,–,–,>16,> 30,1.83,–,–,–,–,–
CN(Cc1cc2n(n1)CCN(c1ccc(F)cc1)C2=O)c1ccccc1F [drawing 30 X = NMe],–,–,–,–,–,–,–,–,0.876,−1,> 30
"O=C1c2cc(CNc3cccc(F)c3)nn2CCN1c1ccc(F)cc1 [Compound 7, 5-(4-fluorophenyl)-2-(((3-fluorophenyl)amino)methyl)-6,7-dihydropyrazolo[1,5-a]pyrazin-4(5H)-one]",1.28,–,99,2.13,2.21,1.04,–,–,–,–,–
"C[C@@H]1CN(c2ccc(F)cc2)C(=O)c2cc(CNc3cc(F)ccc3F)nn21 [Compound 70, (R)-2-(((2,5-difluorophenyl)amino)methyl)-5-(4-fluorophenyl)-7-methyl-6,7-dihydropyrazolo[1,5-a]pyrazin-4(5H)-one]",2.67,–,57.5,>8.7,> 10,1.14,–,–,–,–,–
"O=C1c2cc(CNc3cccc(OC(F)F)c3)nn2CCN1c1ccc(F)cc1 [Compound 12, 2-(((3-(difluoromethoxy)phenyl)amino)methyl)-5-(4-fluorophenyl)-6,7-dihydropyrazolo[1,5-a]pyrazin-4(5H)-one]",1.31,–,85.6,14.51,7.33,0.505,–,–,–,–,–
"O=C1c2cc(CNc3c(F)cc(F)cc3F)nn2CCN1c1ccc(F)cc1 [Compound 33, 5-(4-fluorophenyl)-2-(((2,4,6-trifluorophenyl)amino)methyl)-6,7-dihydropyrazolo[1,5-a]pyrazin-4(5H)-one]",1.82,–,89.7,0.87,1.11,1.27,–,–,–,–,–
"COc1cc(F)cc(N2CCn3nc(CNc4ccc(OC(F)F)cc4F)cc3C2=O)c1 [Compound 147, 2-(((4-(difluoromethoxy)-2-fluorophenyl)amino)methyl)-5-(3-fluoro-5-methoxyphenyl)-6,7-dihydropyrazolo[1,5-a]pyrazin-4(5H)-one]",1.67,–,–,>23,> 30,1.26,–,–,–,–,–
"C[C@@H]1CN(c2ccc(F)cc2)C(=O)c2cc(CNc3ccccc3)nn21 [Compound 40, (R)-5-(4-fluorophenyl)-7-methyl-2-((phenylamino)methyl)-6,7-dihydropyrazolo[1,5-a]pyrazin-4(5H)-one]",5.15,–,34.4,3.49,4.81,1.38,–,–,–,–,–
"COc1ccc(N(C)Cc2cc3n(n2)CCN(c2csc(C)n2)C3=O)cc1 [Compound 115, 2-(((4-methoxyphenyl)(methyl)amino)methyl)-5-(2-methylthiazol-4-yl)-6,7-dihydropyrazolo[1,5-a]pyrazin-4(5H)-one]",3.88,–,–,>18,> 30,1.62,–,–,–,–,–
